# Key:
# Conditions in all cases: 72 h
# [1] = tested on: U2OS; assay: drug sensitivity score (DSS) for viability; higher = more toxic; extreme values may be limits of the assay
# [2] = tested on: Vero E6; assay: as above
# [3] = tested on: Calu-3; assay: as above
# [4] = tested on: Caco-2; assay: as above
# [5] = tested on: U2OS; assay: relative viability EC50 (midpoint between 100% and the lowest measured viability); higher = less toxic
# [6] = tested on: Vero E6; assay: as above
# [7] = tested on: Calu-3; assay: as above
# [8] = tested on: Caco-2; assay: as above
# [9] = tested on: U2OS; assay: cell viability relative to DMSO; higher = less toxic
# [10] = tested on: Vero E6; assay: as above
# [11] = tested on: Calu-3; assay: as above
# [12] = tested on: Caco-2; assay: as above
# [13] = tested on: HepG2; assay: drug sensitivity score (DSS) for viability; higher = more toxic; extreme values may be limits of the assay
# [14] = tested on: HepG2; assay: cell viability relative to DMSO; higher = less toxic
smiles,measurement,setting,value
COc1ccc(C(C)=O)c(O)c1 [paeonol],drug sensitivity score,[1],0
same,drug sensitivity score,[2],0
same,drug sensitivity score,[3],0
same,drug sensitivity score,[4],0
same,relative viability EC50,[5],> 10 µM
same,relative viability EC50,[6],> 10 µM
same,relative viability EC50,[7],> 10 µM
same,relative viability EC50,[8],> 10 µM
same,cell viability,[9]; 1 nM,95%
same,cell viability,[9]; 10 nM,96.8%
same,cell viability,[9]; 100 nM,95.8%
same,cell viability,[9]; 1000 nM,95.8%
same,cell viability,[9]; 10000 nM,97.7%
same,cell viability,[10]; 1 nM,95.4%
same,cell viability,[10]; 10 nM,98.7%
same,cell viability,[10]; 100 nM,96.9%
same,cell viability,[10]; 1000 nM,94.1%
same,cell viability,[10]; 10000 nM,106%
same,cell viability,[11]; 1 nM,95.6%
same,cell viability,[11]; 10 nM,95.9%
same,cell viability,[11]; 100 nM,91.2%
same,cell viability,[11]; 1000 nM,99.8%
same,cell viability,[11]; 10000 nM,105%
same,cell viability,[12]; 1 nM,96.6%
same,cell viability,[12]; 10 nM,96%
same,cell viability,[12]; 100 nM,103%
same,cell viability,[12]; 1000 nM,96.5%
same,cell viability,[12]; 10000 nM,110%
NC(=S)N/N=C/c1ccncc1 [perchlozone],drug sensitivity score,[1],0
same,drug sensitivity score,[2],0
same,drug sensitivity score,[3],0
same,drug sensitivity score,[4],0
same,relative viability EC50,[5],> 10 µM
same,relative viability EC50,[6],> 10 µM
same,relative viability EC50,[7],> 10 µM
same,relative viability EC50,[8],> 10 µM
same,cell viability,[9]; 1 nM,102%
same,cell viability,[9]; 10 nM,98.4%
same,cell viability,[9]; 100 nM,101%
same,cell viability,[9]; 1000 nM,104%
same,cell viability,[9]; 10000 nM,106%
same,cell viability,[10]; 1 nM,93.9%
same,cell viability,[10]; 10 nM,98.9%
same,cell viability,[10]; 100 nM,93.7%
same,cell viability,[10]; 1000 nM,99.2%
same,cell viability,[10]; 10000 nM,108%
same,cell viability,[11]; 1 nM,104%
same,cell viability,[11]; 10 nM,100%
same,cell viability,[11]; 100 nM,105%
same,cell viability,[11]; 1000 nM,95.6%
same,cell viability,[11]; 10000 nM,100%
same,cell viability,[12]; 1 nM,97.2%
same,cell viability,[12]; 10 nM,100%
same,cell viability,[12]; 100 nM,91.1%
same,cell viability,[12]; 1000 nM,106%
same,cell viability,[12]; 10000 nM,92.6%
CC(=O)O[C@H]1CC[C@@]2(C)C(=CC[C@@H]3[C@@H]2CC[C@]2(C)C(=O)CC[C@@H]32)C1 [prasterone-acetate],drug sensitivity score,[1],0
same,drug sensitivity score,[2],0
same,drug sensitivity score,[3],0
same,drug sensitivity score,[13],0
O=C1c2ccccc2-c2n[nH]c3cccc1c23 [pyrazolanthrone],drug sensitivity score,[2],0
same,drug sensitivity score,[3],0
same,drug sensitivity score,[4],0
same,drug sensitivity score,[13],3.3
same,relative viability EC50,[6],> 10 µM
same,relative viability EC50,[7],> 10 µM
same,relative viability EC50,[8],> 10 µM
same,cell viability,[10]; 1 nM,94.7%
same,cell viability,[10]; 10 nM,102%
same,cell viability,[10]; 100 nM,99.8%
same,cell viability,[10]; 1000 nM,106%
same,cell viability,[10]; 10000 nM,105%
same,cell viability,[11]; 1 nM,94.9%
same,cell viability,[11]; 10 nM,95.7%
same,cell viability,[11]; 100 nM,92.4%
same,cell viability,[11]; 1000 nM,100%
same,cell viability,[11]; 10000 nM,98.6%
same,cell viability,[12]; 1 nM,111%
same,cell viability,[12]; 10 nM,92.3%
same,cell viability,[12]; 100 nM,99.4%
same,cell viability,[12]; 1000 nM,102%
same,cell viability,[12]; 10000 nM,97.9%
same,cell viability,[14]; 1 nM,101%
same,cell viability,[14]; 10 nM,80.2%
same,cell viability,[14]; 100 nM,96.8%
same,cell viability,[14]; 1000 nM,82.4%
same,cell viability,[14]; 10000 nM,71.5%
CN1CCN(CCOc2cc(OC3CCOCC3)c3c(Nc4c(Cl)ccc5c4OCO5)ncnc3c2)CC1 [saracatinib],drug sensitivity score,[1],5.2
same,drug sensitivity score,[2],8
same,drug sensitivity score,[3],12
same,drug sensitivity score,[4],3.8
same,drug sensitivity score,[13],3.3
same,relative viability EC50,[5],1.09 µM
same,relative viability EC50,[6],1.37 µM
same,relative viability EC50,[7],0.7 µM
same,cell viability,[9]; 1 nM,98.6%
same,cell viability,[9]; 10 nM,102%
same,cell viability,[9]; 100 nM,88.8%
same,cell viability,[9]; 1000 nM,78.9%
same,cell viability,[9]; 10000 nM,47.5%
same,cell viability,[10]; 1 nM,97.5%
same,cell viability,[10]; 10 nM,97.1%
same,cell viability,[10]; 100 nM,102%
same,cell viability,[10]; 1000 nM,75.2%
same,cell viability,[10]; 10000 nM,21%
same,cell viability,[11]; 1 nM,87.7%
same,cell viability,[11]; 10 nM,116%
same,cell viability,[11]; 100 nM,95%
same,cell viability,[11]; 1000 nM,42.3%
same,cell viability,[11]; 10000 nM,9.6%
same,cell viability,[12]; 1 nM,107%
same,cell viability,[12]; 10 nM,102%
same,cell viability,[12]; 100 nM,102%
same,cell viability,[12]; 1000 nM,84.4%
same,cell viability,[12]; 10000 nM,63.8%
same,cell viability,[14]; 1 nM,100%
same,cell viability,[14]; 10 nM,101%
same,cell viability,[14]; 100 nM,107%
same,cell viability,[14]; 1000 nM,80.2%
same,cell viability,[14]; 10000 nM,72.1%
Cc1cc(NS(=O)(=O)c2ccc(N)cc2)no1 [sulfamethoxazole],drug sensitivity score,[1],0
same,drug sensitivity score,[3],0
same,drug sensitivity score,[13],0
CCC(CC)C(c1ccc(Nc2nc3ccccc3s2)cc1)n1cncn1 (centres undefined) [talarozole],drug sensitivity score,[1],0
same,drug sensitivity score,[2],0
same,drug sensitivity score,[3],0
same,drug sensitivity score,[4],1.2
same,drug sensitivity score,[13],1.6
same,relative viability EC50,[5],> 10 µM
same,relative viability EC50,[6],> 10 µM
same,relative viability EC50,[7],> 10 µM
same,cell viability,[9]; 1 nM,104%
same,cell viability,[9]; 10 nM,104%
same,cell viability,[9]; 100 nM,101%
same,cell viability,[9]; 1000 nM,102%
same,cell viability,[9]; 10000 nM,93.3%
same,cell viability,[10]; 1 nM,108%
same,cell viability,[10]; 10 nM,101%
same,cell viability,[10]; 100 nM,99.3%
same,cell viability,[10]; 1000 nM,99.1%
same,cell viability,[10]; 10000 nM,105%
same,cell viability,[11]; 1 nM,100%
same,cell viability,[11]; 10 nM,104%
same,cell viability,[11]; 100 nM,103%
same,cell viability,[11]; 1000 nM,109%
same,cell viability,[11]; 10000 nM,104%
same,cell viability,[12]; 1 nM,94.1%
same,cell viability,[12]; 10 nM,104%
same,cell viability,[12]; 100 nM,96%
same,cell viability,[12]; 1000 nM,103%
same,cell viability,[12]; 10000 nM,67.8%
same,cell viability,[14]; 1 nM,92.3%
same,cell viability,[14]; 10 nM,92.5%
same,cell viability,[14]; 100 nM,104%
same,cell viability,[14]; 1000 nM,102%
same,cell viability,[14]; 10000 nM,63.7%
Cn1ncnc1[C@H]1c2n[nH]c(=O)c3cc(F)cc(c23)N[C@@H]1c1ccc(F)cc1 [talazoparib],drug sensitivity score,[2],8.7
same,drug sensitivity score,[3],6.3
same,drug sensitivity score,[4],2.1
same,drug sensitivity score,[13],8.5
same,relative viability EC50,[8],> 10 µM
same,cell viability,[10]; 1 nM,95.1%
same,cell viability,[10]; 10 nM,97.6%
same,cell viability,[10]; 100 nM,77.6%
same,cell viability,[10]; 1000 nM,66.3%
same,cell viability,[10]; 10000 nM,54.5%
same,cell viability,[11]; 1 nM,105%
same,cell viability,[11]; 10 nM,84.3%
same,cell viability,[11]; 100 nM,93.3%
same,cell viability,[11]; 1000 nM,68.9%
same,cell viability,[11]; 10000 nM,58.2%
same,cell viability,[12]; 1 nM,105%
same,cell viability,[12]; 10 nM,96.3%
same,cell viability,[12]; 100 nM,93.7%
same,cell viability,[12]; 1000 nM,82.7%
same,cell viability,[12]; 10000 nM,85.9%
same,cell viability,[14]; 1 nM,98.8%
same,cell viability,[14]; 10 nM,89.3%
same,cell viability,[14]; 100 nM,77.3%
same,cell viability,[14]; 1000 nM,71.4%
same,cell viability,[14]; 10000 nM,50.1%
CN1CCN(CCCN2c3ccccc3Sc3ccc(C(F)(F)F)cc32)CC1 [trifluoperazine],drug sensitivity score,[1],0.4
same,drug sensitivity score,[2],2.2
same,drug sensitivity score,[3],1
same,drug sensitivity score,[4],4.6
same,drug sensitivity score,[13],3.5
same,relative viability EC50,[5],> 10 µM
same,relative viability EC50,[6],> 10 µM
same,relative viability EC50,[8],> 10 µM
same,cell viability,[9]; 1 nM,97.4%
same,cell viability,[9]; 10 nM,100%
same,cell viability,[9]; 100 nM,101%
same,cell viability,[9]; 1000 nM,98%
same,cell viability,[9]; 10000 nM,85.5%
same,cell viability,[10]; 1 nM,95.5%
same,cell viability,[10]; 10 nM,103%
same,cell viability,[10]; 100 nM,105%
same,cell viability,[10]; 1000 nM,88.7%
same,cell viability,[10]; 10000 nM,76.2%
same,cell viability,[11]; 1 nM,103%
same,cell viability,[11]; 10 nM,99.3%
same,cell viability,[11]; 100 nM,102%
same,cell viability,[11]; 1000 nM,101%
same,cell viability,[11]; 10000 nM,72.2%
same,cell viability,[12]; 1 nM,92%
same,cell viability,[12]; 10 nM,86.1%
same,cell viability,[12]; 100 nM,84.3%
same,cell viability,[12]; 1000 nM,82.6%
same,cell viability,[12]; 10000 nM,83%
same,cell viability,[14]; 1 nM,106%
same,cell viability,[14]; 10 nM,89.7%
same,cell viability,[14]; 100 nM,98%
same,cell viability,[14]; 1000 nM,92%
same,cell viability,[14]; 10000 nM,56.6%
